In patent US5304367A, “In vivo brain imaging agent and method for diagnosis of psychiatric disorders” (New York University, priority 1990, dated 1994):

What was measured:
[1] = whole body distribution, female BALB/c mice, 500 μCi/kg; assay type: in vivo, mouse (BALB/c)
[2] = whole body distribution, mice, 2 μCi; assay type: in vivo, mouse
Experimental: In a subsequent study, whole body distribution was examined in mice following tail vein injection of 2 μCi ^125 I-iodopindolol. Animals were sacrificed at various time points up to 22 hours post-injection. Percent injected dose (%ID) was determined in 11 organs, blood and urine. At one minute, lungs contained the highest %ID (17%), heart 3-4 %ID and brain 0.3%ID.

Structure (SMILES): CC(C)NCC(O)COc1cccc2[nH]cc([125I])c12 (stereo not drawn) [^125 I-iodopindolol]
- brain levels relative to blood levels (mCi per gram of brain / mCi per ml blood) ([1]; 1 minute post-injection): about 1/5
- brain levels, injected dose ([1]; 1 minute post-injection): less than 1 % of injected dose
- urine levels ([1]; 1 minute post-injection): below the threshold of detection
- highest concentrations of radioactivity (counts/gram of tissue) ([1]; 1 minute post-injection, 500 μCi/kg i.v.): in the lungs, followed by heart and other organs
- receptor occupancy ([1]; 120 min, based on Bmax of approximately 2 pmole/gram brain): less than 1%
- Bmax used for receptor occupancy ([1]; extrapolated from rat and human values): approximately 2 pmole/gram brain
- brain levels, total injected dose ([1]; two hours later (120 min)): 0.06 % of total injected dose
- highest activity, order of organs ([1]; two hours later (120 min)): highest activity was found in urine, followed by lung, heart and brain
- radioactivity in all organs ([2]; between 2-4 hours post-injection): fell in all organs
- brain, percent injected dose (%ID) ([2]; one minute, 2 μCi tail vein): 0.3 %ID
- heart, percent injected dose (%ID) ([2]; one minute, 2 μCi tail vein): 3-4 %ID
- lungs, percent injected dose (%ID) ([2]; one minute, 2 μCi tail vein): 17 %ID
- brain levels, time course ([2]; until two hours post-injection): remained stable until two hours post-injection
- lung radioactivity ([2]; until two hours post-injection): declined
- stomach and intestine radioactivity ([2]; until two hours post-injection): increased
